Consider 14 molecules from patent publication US20080171740A1, “Chemical Compounds” (SMITHKLINE BEECHAM CORPORATION, priority 2004, published 2008).

Like-named read-outs stand apart in the source and are kept apart here.

What all share (type): cell-based
For data set [1], the system named is HIV-1 gp160 (HXB2 strain) mediated fusion with HOS (hCXCR4/hCCR5/hCD4/pHIV-LTR-luciferase) cells. In words: Cell/cell fusion assay (HEK-293 expressing HIV-1 tat, rev, gp160 with HOS hCXCR4/hCCR5/hCD4/pHIV-LTR-luciferase cells). To be noted: Homo sapiens, HEK293; luciferase readout after 24 h; read-out: Fusion assay (pIC50) (converted). From the text:
The complete coding sequences of HIV-1 tat (GenBank Accession No. X07861) and rev (GenBank Accession No. M34378) were cloned into pcDNA3.1 expression vectors containing G418 and hygromycin resistance genes, respectively. The complete coding sequence of the HIV-1 (HXB2 strain) gp160 envelope gene (nucleotide bases 6225-8795 of GenBank Accession No. K03455) was cloned into plasmid pCRII-TOPO. The three HIV genes were additionally inserted into the baculovirus shuttle vector, pFastBacMam1, under the transcriptional control of the CMV promoter. A construction of the pHIV-I LTR containing mutated NFkB sequences linked to the luciferase reporter gene was prepared by digesting pcDNA3.1, containing the G418 resistance gene, with Nru I and Bam HI to remove the CMV promoter. LTR-luc was then cloned into the Nru I/Bam HI sites of the plasmid vector. Plasmid preparations were performed after the plasmids were amplified in Escherichia coli strain DH5-alpha. The fidelity of the inserted sequences was confirmed by double-strand nucleotide sequencing using an ABI Prism Model 377 automated sequencer.
Recombinant BacMam baculoviruses were constructed from pFastBacMam shuttle plasmids by using the bacterial cell-based Bac-to-Bac system. Viruses were propagated in Sf9 (Spodoptera frugiperda) cells cultured in Hink's TNM-FH Insect media supplemented with 10% (v/v) fetal bovine serum and 0.1% (v/v) pluronic F-68 according to established protocols.
Human osteosarcoma (HOS) cells that naturally express human CXCR4 were transfected with human CCR5, human CD4 and the pHIV-LTR-luciferase plasmid using FuGENE 6 transfection reagent. Single cells were isolated and grown under selection condition in order to generate a stable HOS (hCXCR4/hCCR5/hCD4/pHIV-LTR-luciferase) clonal cell line. The cells were maintained in Dulbeccos modified Eagles media supplemented with 10% fetal calf serum (FCS), G418 (400 ug/ml), puromycin (1 ug/ml), mycophenolic acid (40 ug/ml), xanthine (250 ug/ml) and hypoxanthine (13.5 ug/ml) to maintain a selection pressure for cells expressing the LTR-luciferase, hCCR5 and hCD4, respectively. Human embryonic kidney (HEK-293) cells stably transfected to express the human macrophage scavenging receptor (Class A, type 1; GenBank Accession No. D90187), were maintained in DMEM/F-12 media (1:1) supplemented with 10% FCS and 1.5 ug/ml puromycin. The expression of this receptor by the HEK-293 cells enhances their ability to stick to tissue culture treated plasticware.
HEK-293 cells were harvested using enzyme-free cell dissociation buffer. The cells were resuspended in DMEM/F-12 media supplemented with 10% FCS and 1.5 ug/ml and counted. Tranductions were performed by direct addition of BacMam baculovirus containing insect cell media to cells. The cells were simultaneously transduced with BacMam baculovirus expressing HIV-1 tat, HIV-1 rev and HIV-1 gp160 (from the HXB2 HIV strain). Routinely an MOI of 10 of each virus was added to the media containing the cells. 2 mM butyric acid was also added to the cells at this stage to increase protein expression in transduced cells. The cells were subsequently mixed and seeded into a flask at 30 million cells per T225. The cells were incubated at 37° C., 5% CO2, 95% humidity for 24 h to allow for protein expression.
HEK and HOS cells were harvested in DMEM/F-12 media containing 2% FCS and DMEM media containing 2% FCS, respectively, with no selection agents added. Compounds were plated as 1 ul spots in 100% DMSO on a 96-well CulturPlate plates. HOS cells (50 ul) were added first to the wells, followed immediately by the HEK cells (50 ul). The final concentration of each cell type was 20,000 cells per well. Following these additions, the cells were returned to a tissue culture incubator (37° C.; 5% CO2/95% air) for an additional 24 h.
Following the 24 h incubation, total cellular luciferase activity was measured using the LucLite Plus assay kit (Packard, Meridien, Conn.). […]

A further data set has as its target T1, CXCR4 receptor (Homo sapiens, UniProt P61073).
T1 construct: expressed in transfected cells; host or cells: HEK-293 cells (stably expressing human macrophage scavenging receptor) transduced with human CXCR4 BacMam and Gqi5 BacMam
Put plainly: Functional FLIPR assay (block of SDF-1 alpha induced [Ca2+]i change). The following applies: HEK-293 cells with human CXCR4 BacMam and Gqi5 BacMam; antagonism of SDF-1 alpha; read-out: Functional assay (pIC50) (converted). The method, then:
Human embryonic kidney (HEK-293) cells were maintained and harvested as described above. Cells were plated in 96-well, black clear bottom, poly-lysine coated plates at a concentration of 40,000 cells per well in a final volume of 100 ul containing human CXCR4 BacMam (MOI=25) and Gqi5 BacMam (MOI=12.5). The cells were incubated at 37° C., 5% CO2, 95% humidity for 24 h to allow for protein expression.
After the required incubation time the cells were washed once with 50 ul of fresh serum-free DMEM/F12 media containing probenicid. 50 ul of dye solution was then added to the cells (Calcium Plus Assay Kit Dye; Molecular Devices) was dissolved in 200 ml of the above probenicid/BSA containing media and incubated for 1 h. Cell plates were transferred to a Fluorometric Imaging Plate Reader (FLIPR). Upon addition the effect of the compounds on the change in [Ca^2+]i was examined to determine if the compounds were agonists or antagonists (ability to block SDF-1 alpha activity) at the CXCR4 receptor. IC50 values are determined and pKb values are calculated using the Leff and Dougall equation: KB=IC50/((2+([agonist]/EC50̂b)̂1/b -1) Where IC50 is that defined by the antagonist concentration-response curve [agonist] is the EC80 concentration of agonist used EC50 is that defined by the agonist concentration-response curve b is the slope of the agonist concentration-response curve.

The nature of data set [2]: Compound cytotoxicity in the absence of virus (CellTiter-Glo). The following applies: human; non-infected HOS cultures, cell viability; read-out: Cytotox (pIC50) (converted). The protocol: (§1) Compounds were profiled against two HIV-1 viruses, the M-tropic (CCR5 utilizing) Ba-L strain and the T-tropic (CXCR4 utilizing) IIIB strain. Both viruses were propagated in human peripheral blood lymphocytes. Compounds were tested for there ability to block infection of the HOS cell line (expressing hCXCR4/hCCR5/hCD4/pHIV-LTR-luciferase) by either HIV-1 Ba-L or HIV-1 IIIB. Compound cytotoxicity was also examined in the absence of virus addition.
(§2) HOS cells (expressing hCXCR4/hCCR5/hCD4/pHIV-LTR-luciferase) were harvested and diluted in Dulbeccos modified Eagles media supplemented with 2% FCS and non-essential amino acid to a concentration of 60,000 cells/ml. The cells were plated into 96-well plates (100 ul per well) and the plates were placed in a tissue culture incubator (37° C.; 5% CO2/95% air) for a period of 24 h.
(§3) Subsequently, 50 ul of the desired drug solution (4 times the final concentration) was added to each well and the plates were returned to the tissue culture incubator (37° C.; 5% CO2/95% air) for 1 h. Following this incubation 50 ul of diluted virus was added to each well (approximately 2 million RLU per well of virus). The plates were returned to the tissue culture incubator (37° C.; 5% CO2/95% air) and were incubated for a further 96 h.
(§4) Following this incubation the endpoint for the virally infected cultures was quantified following addition of Steady-Glo Luciferase assay system reagent (Promega, Madison, Wis.). Cell viability or non-infected cultures was measured using a CellTiter-Glo luminescent cell viability assay system (Promega, Madison, Wis.). All luminescent readouts are performed on a Topcount luminescence detector (Packard, Meridien, Conn.).

Data set [3] deals with HIV-1 IIIB strain, T-tropic (CXCR4 utilizing). Put plainly: HOS HIV-1 infectivity assay. The method, then: as §1, §2, §3, §4
[4] abbreviates: Human immunodeficiency virus 1, IIIB, HOS HIV anti-infectivity assay, strain not named in Table 2, read-out: Activity Level.

T1 sequence (P61073 whole entry): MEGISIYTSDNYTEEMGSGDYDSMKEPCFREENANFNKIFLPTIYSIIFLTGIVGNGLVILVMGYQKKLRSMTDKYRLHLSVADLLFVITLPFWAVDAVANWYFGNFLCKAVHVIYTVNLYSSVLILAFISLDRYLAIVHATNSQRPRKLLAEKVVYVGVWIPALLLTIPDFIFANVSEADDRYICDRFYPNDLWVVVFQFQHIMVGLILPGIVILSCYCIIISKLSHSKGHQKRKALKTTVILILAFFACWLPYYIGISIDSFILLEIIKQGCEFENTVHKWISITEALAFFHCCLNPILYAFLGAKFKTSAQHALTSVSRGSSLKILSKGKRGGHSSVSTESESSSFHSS

Regarding `NCCCCN(Cc1cn2ccccc2n1)C1CCCc2cccnc21` (stereo not drawn) [Example 1, N-(Imidazo[1,2-a]pyridin-2-ylmethyl)-N-(5,6,7,8-tetrahydro-8-quinolinyl)-1,4-butanediamine], the IC50 in data set [1] was 79.4 nM; on CXCR4 receptor it was 33.9 nM; in data set [3] (setting [4]) it was less than 100 nM; in data set [3] (Human immunodeficiency virus 1, HOS cells, HIV-1 IIIB, 96 h, luciferase, read-out: HOS (3B)), 42 nM. Besides, the IC50 at 96 h in data set [2] is more than 100000 nM. `CN1CCN(c2cccc3nc(CN(Cc4ccccc4N(C)C)[C@H]4CCCc5cccnc54)cn23)CC1` [Example 29, (8S)-N-{[2-(Dimethylamino)phenyl]methyl}-N-{[5-(4-methyl-1-piperazinyl)imidazo[1,2-a]pyridin-2-yl]methyl}-5,6,7,8-tetrahydro-8-quinolinamine]: in data set [3] (setting [4]), the IC50 is less than 100 nM. On the same count and under the same terms, the figure for `CN1CCN(c2cccc3nc(CN(Cc4ccccn4)[C@H]4CCCc5cccnc54)cn23)CC1` [Example 30, (8S)-N-{[5-(4-Methyl-1-piperazinyl)imidazo[1,2-a]pyridin-2-yl]methyl}-N-(2-pyridinylmethyl)-5,6,7,8-tetrahydro-8-quinolinamine] is 100 to 500 nM. Regarding `CN1CCN(c2cccc3nc(CN(Cc4cccnc4)[C@H]4CCCc5cccnc54)cn23)CC1` [Example 31, (8S)-N-{[5-(4-Methyl-1-piperazinyl)imidazo[1,2-a]pyridin-2-yl]methyl}-N-(3-pyridinylmethyl)-5,6,7,8-tetrahydro-8-quinolinamine], the IC50 in data set [3] (setting [4]) is less than 100 nM. On to `CN1CCN(c2cccc3nc(CN(Cc4ccncc4)[C@H]4CCCc5cccnc54)cn23)CC1` [Example 32, (8S)-N-{[5-(4-Methyl-1-piperazinyl)imidazo[1,2-a]pyridin-2-yl]methyl}-N-(4-pyridinylmethyl)-5,6,7,8-tetrahydro-8-quinolinamine], for which the IC50 in data set [3] (setting [4]) was less than 100 nM.

With `CN1CCN(c2cccc3nc(CN(Cc4ccccn4)[C@H]4CCCc5cccnc54)c(CO)n23)CC1` [Example 34, [5-(4-Methyl-1-piperazinyl)-2-({(2-pyridinylmethyl)[(8S)-5,6,7,8-tetrahydro-8-quinolinyl]amino}methyl)imidazo[1,2-a]pyridin-3-yl]methanol], in data set [3] (setting [4]), the IC50 is less than 100 nM.

In the case of `CN1CCN(c2cccc3nc(CN(Cc4cccnc4)[C@H]4CCCc5cccnc54)c(CO)n23)CC1` [Example 35, [5-(4-Methyl-1-piperazinyl)-2-({(3-pyridinylmethyl)[(8S)-5,6,7,8-tetrahydro-8-quinolinyl]amino}methyl)imidazo[1,2-a]pyridin-3-yl]methanol], in data set [3] (setting [4]), the IC50 is less than 100 nM. Same read-out and setting: the figure for `CN1CCN(c2cccc3nc(CN(Cc4ccncc4)[C@H]4CCCc5cccnc54)c(CO)n23)CC1` [Example 36, [5-(4-Methyl-1-piperazinyl)-2-({(4-pyridinylmethyl)[(8S)-5,6,7,8-tetrahydro-8-quinolinyl]amino}methyl)imidazo[1,2-a]pyridin-3-yl]methanol] is less than 100 nM. The same measure, in the same setting: in the case of `NC1CCC(N(Cc2cn3ccccc3n2)C2CCCc3cccnc32)CC1` (stereo not drawn) [Example 37, N-(Imidazo[1,2-a]pyridin-2-ylmethyl)-N-(5,6,7,8-tetrahydro-8-quinolinyl)-1,4-cyclohexanediamine] it was 100 to 500 nM; in that of `NCCN(Cc1cn2ccccc2n1)C1CCCc2cccnc21` (stereo not drawn) [Example 42, N-(Imidazo[1,2-a]pyridin-2-ylmethyl)-N-(5,6,7,8-tetrahydroquinolin-8-yl)ethane-1,2-diamine], 500 to 10000 nM. The same measure, in the same setting: the figure for `NCCCCCN(Cc1cn2ccccc2n1)C1CCCc2cccnc21` (stereo not drawn) [Example 43, N-(Imidazo[1,2-a]pyridin-2-ylmethyl)-N-(5,6,7,8-tetrahydro-8-quinolinyl)-1,5-pentanediamine] is 100 to 500 nM.

Consider `NCCCN(Cc1cn2ccccc2n1)C1CCCc2cccnc21` (stereo not drawn) [Example 44, N-(Imidazo[1,2-a]pyridin-2-ylmethyl)-N-(5,6,7,8-tetrahydro-8-quinolinyl)-1,3-propanediamine], for which the IC50 in data set [3] (setting [4]) is 500 to 10000 nM. Consider `NCCCCN(Cc1nc2ccccn2c1Cl)C1CCCc2cccnc21` (stereo not drawn) [Example 45, N-[(3-Chloroimidazo[1,2-a]pyridin-2-yl)methyl]-N-(5,6,7,8-tetrahydro-8-quinolinyl)-1,4-butanediamine], for which the IC50 in data set [3] (setting [4]) is less than 100 nM.

`NCCCCN(Cc1nc2ccccn2c1Br)C1CCCc2cccnc21` (stereo not drawn) [Example 46, N-[(3-Bromoimidazo[1,2-a]pyridin-2-yl)methyl]-N-(5,6,7,8-tetrahydro-8-quinolinyl)-1,4-butanediamine]: the IC50 in data set [3] (setting [4]) was less than 100 nM.
